Test system: WIPI-1
Assay: WIPI-1 Screening, mRNA up-regulation in normal human keratinocytes (HEKa), Quantigene multiplex assay
Type: cell-based
Conditions: for HEKa Activity Level (percent up-regulation of WIPI-1 mRNA, scaled score): HEKa keratinocytes, 24 hours, vs vehicle control
Experimental: A variety of botanical extract and synthetic compounds were tested for the ability to up-regulate WIPI-1. Normal human dermal fibroblasts or keratinocytes were cultured in 96-well tissue culture treated plates, containing appropriate culture medium. Stock solutions of actives were made in an appropriate vehicle (water/Ethanol/DMSO). Cells were treated with test material or respective vehicle control diluted in growth medium for 24 hours in a humidified 37° C. incubator with 10% CO2. The concentrations of each extract are provided based on the dry weight of the given plant extract, by which is meant the weight of the extract after volatile extraction solvents have been removed. After incubation, growth medium from each plate was removed and 100 μL of lysis buffer was added to the wells and placed in 37° C. incubator with 10% CO2 for 30 minutes. At the end of incubation, the cells were collected in freezer plates and placed in −80° C. freezer, until analysis. Changes in mRNA after treatment were analysed using Panomics Quantigene multiplex assay that employs a branched DNA technology, following manufacturer's instructions (Affymetrix, CA). Percent increase (up-regulation) in mRNA for the WIPI-1 were calculated by comparing the test results to the control. The percent up-regulation is converted to a scaled score: 0: 0-20%; +: 21-40%; ++: 41-60%; +++: 61-80%; ++++: >80%.

CCOCCCNC(=O)c1coc(CN(CCCOCC)C(=O)c2ccc(Cl)cc2)n1 [Analog 1]
HEKa Activity Level (percent up-regulation of WIPI-1 mRNA, scaled score) (concentration 0.001%): + (+: 21-40%)
HEKa Activity Level (percent up-regulation of WIPI-1 mRNA, scaled score) (concentration 0.01%): + (+: 21-40%)
WIPI-1 within keratinocytes upregulated (in words) (keratinocytes): upregulated

From US9675543B2, “Method of improving aging appearance of skin by modulation of WIPI-1” (Avon Products, Inc., priority 2012, dated 2017)
